pIC50: −log10 of the molar value. Several values for one entry are separate records, joined by “and”; a condition that tells them apart may be missing. Identical values can stand only once. Activity calls are given as the source filed them. The calls are words filed in the database; no cut-off is given here.
Experiments:
Heat shock protein HSP90 [1] = target: T1, Heat shock protein HSP90 (Homo sapiens, UniProt P07900+P08238); test: Inhibition of Hsp90 (unknown origin); type: protein assay
A549 [2] = test: Cytotoxicity against human A549 cells by MTT assay; type: functional, cell-based
[3] = Cytotoxicity against human 95-D cells by MTT assay; type: functional, cell-based
MCF7 = test: Cytotoxicity against human MCF7 cells by MTT assay; type: functional, cell-based
MDA-MB-231 = test: Cytotoxicity against human MDA-MB-231 cells by MTT assay; type: functional, cell-based
HeLa = test: Cytotoxicity against human HeLa cells by MTT assay; type: functional, cell-based
ES-2 = test: Cytotoxicity against human ES2 cells by MTT assay; type: functional, cell-based
Heat shock protein HSP90 [4] = target: T1, Heat shock protein HSP90; test: Inhibition of Hsp90 in human A549 cells assessed as upregulation of Hsp70 level at 25 to 100 nM by Western blot analysis; type: cell-based; details: dose 25-100 nM
A549 [5] = test: Induction of cell cycle arrest in human A549 cells assessed as accumulation at G1 phase at 10 nM incubated for 48 hrs by flow cytometry (reference value: 61.70 %); type: functional
A549 [6] = test: Induction of cell cycle arrest in human A549 cells assessed as accumulation at G2 phase at 10 nM incubated for 48 hrs by flow cytometry (reference value: 2.53 %); type: functional
A549 [7] = test: Induction of cell cycle arrest in human A549 cells assessed as accumulation at S phase at 10 nM incubated for 48 hrs by flow cytometry (reference value: 35.77 %); type: functional
A549 [8] = test: Induction of cell cycle arrest in human A549 cells assessed as accumulation at G2/G1 phase at 10 nM incubated for 48 hrs by flow cytometry (reference value: 2 %); type: functional
A549 [9] = test: Induction of cell cycle arrest in human A549 cells assessed as accumulation at G1 phase at 50 nM incubated for 48 hrs by flow cytometry (reference value: 61.70 %); type: functional
A549 [10] = test: Induction of cell cycle arrest in human A549 cells assessed as accumulation at G2 phase at 50 nM incubated for 48 hrs by flow cytometry (reference value: 2.53 %); type: functional
A549 [11] = test: Induction of cell cycle arrest in human A549 cells assessed as accumulation at S phase at 50 nM incubated for 48 hrs by flow cytometry (reference value: 35.77 %); type: functional
A549 [12] = test: Induction of cell cycle arrest in human A549 cells assessed as accumulation at G2/G1 phase at 50 nM incubated for 48 hrs by flow cytometry (reference value: 2 %); type: functional
A549 [13] = test: Induction of cell cycle arrest in human A549 cells assessed as accumulation at G1 phase at 200 nM incubated for 48 hrs by flow cytometry (reference value: 61.70 %); type: functional
A549 [14] = test: Induction of cell cycle arrest in human A549 cells assessed as accumulation at G2 phase at 200 nM incubated for 48 hrs by flow cytometry (reference value: 2.53 %); type: functional
A549 [15] = test: Induction of cell cycle arrest in human A549 cells assessed as accumulation at S phase at 200 nM incubated for 48 hrs by flow cytometry (reference value: 35.77 %); type: functional
A549 [16] = test: Induction of cell cycle arrest in human A549 cells assessed as accumulation at G2/G1 phase at 200 nM incubated for 48 hrs by flow cytometry (reference value: 2 %); type: functional
A549 [17] = test: Induction of apoptosis in human A549 cells assessed as viable cells at 10 nM incubated for 48 hrs by annexin V-FITC/7-AAD staining based flow cytometry (reference value: 96.1 %); type: functional; details: read-out: Activity
A549 [18] = test: Induction of apoptosis in human A549 cells assessed as early apoptotic cells at 10 nM incubated for 48 hrs by annexin V-FITC/7-AAD staining based flow cytometry (reference value: 0.32 %); type: functional
A549 [19] = test: Induction of apoptosis in human A549 cells assessed as late apoptotic cells at 10 nM incubated for 48 hrs by annexin V-FITC/7-AAD staining based flow cytometry (reference value: 0.64 %); type: functional
A549 [20] = test: Induction of apoptosis in human A549 cells assessed as necrotic cells at 10 nM incubated for 48 hrs by annexin V-FITC/7-AAD staining based flow cytometry (reference value: 0.92 %); type: functional
A549 [21] = test: Induction of apoptosis in human A549 cells assessed as viable cells at 50 nM incubated for 48 hrs by annexin V-FITC/7-AAD staining based flow cytometry (reference value: 96.1 %); type: functional; details: read-out: Activity
A549 [22] = test: Induction of apoptosis in human A549 cells assessed as early apoptotic cells at 50 nM incubated for 48 hrs by annexin V-FITC/7-AAD staining based flow cytometry (reference value: 0.32 %); type: functional
A549 [23] = test: Induction of apoptosis in human A549 cells assessed as late apoptotic cells at 50 nM incubated for 48 hrs by annexin V-FITC/7-AAD staining based flow cytometry (reference value: 0.64 %); type: functional
A549 [24] = test: Induction of apoptosis in human A549 cells assessed as necrotic cells at 50 nM incubated for 48 hrs by annexin V-FITC/7-AAD staining based flow cytometry (reference value: 0.92 %); type: functional
A549 [25] = test: Induction of apoptosis in human A549 cells assessed as viable cells at 200 nM incubated for 48 hrs by annexin V-FITC/7-AAD staining based flow cytometry (reference value: 96.1 %); type: functional; details: read-out: Activity
A549 [26] = test: Induction of apoptosis in human A549 cells assessed as early apoptotic cells at 200 nM incubated for 48 hrs by annexin V-FITC/7-AAD staining based flow cytometry (reference value: 0.32 %); type: functional
A549 [27] = test: Induction of apoptosis in human A549 cells assessed as late apoptotic cells at 200 nM incubated for 48 hrs by annexin V-FITC/7-AAD staining based flow cytometry (reference value: 0.64 %); type: functional
A549 [28] = test: Induction of apoptosis in human A549 cells assessed as necrotic cells at 200 nM incubated for 48 hrs by annexin V-FITC/7-AAD staining based flow cytometry (reference value: 0.92 %); type: functional
A549 [29] = test: Inhibition of colony formation in human A549 cells; type: functional, cell-based; details: dose 10-20 nM
A549 [30] = test: Anti-migration activity in human A549 cells at 0.3 to 3 nM incubated for 48 hrs by scratch wound healing assay; type: functional, cell-based; details: dose 0.3-3 nM
Heat shock protein HSP90 [31] = target: T1, Heat shock protein HSP90; test: Inhibition of Hsp90 in human A549 cells assessed as downregulation of HER2 level by Western blot analysis; type: cell-based; details: dose 25-100 nM
Heat shock protein HSP90 [32] = target: T1, Heat shock protein HSP90; test: Inhibition of Hsp90 in human A549 cells assessed as downregulation of CDK4 level by Western blot analysis; type: cell-based; details: dose 25-100 nM

| Structure (SMILES) | IC50 (Heat shock protein HSP90 [1]) [nM] | pIC50 (A549 [2]) | pIC50 [3] | pIC50 (MCF7) | pIC50 (MDA-MB-231) | pIC50 (HeLa) | pIC50 (ES-2) | Activity (A549 [9]) [%] | Activity (A549 [10]) [%] | Activity (A549 [11]) [%] | Activity (A549 [12]) [%] | Activity (A549 [13]) [%] | Activity (A549 [14]) [%] | Activity (A549 [15]) [%] | Activity (A549 [16]) [%] | viability at 0.05 µM (A549 [21]) [%] | Activity (A549 [22]) [%] | Activity (A549 [23]) [%] | Activity (A549 [24]) [%] | viability at 0.2 µM (A549 [25]) [%] | other results |
| --- | --- | --- | --- | --- | --- | --- | --- | --- | --- | --- | --- | --- | --- | --- | --- | --- | --- | --- | --- | --- | --- |
| CCNC(=O)c1noc(-c2cc(C(C)C)c(O)cc2O)c1-c1ccc([N+](=O)[O-])cc1 | 15 | 7.79 | 8.54 | 8.54 | 8.28 | 7.72 | 7.91 | – | – | – | – | – | – | – | – | – | – | – | – | – | – |
| CCNC(=O)c1noc(-c2cc(C(C)C)c(O)cc2O)c1-c1ccc(S(C)(=O)=O)cc1 | 9 | 8.06 | 8.77 | 8.87 | 8.55 | 8.70 | 8.07 | 70.94 | 13.38 | 15.68 | 2 | 78.26 | 14.76 | 6.98 | 2 | 93 | 1.7 | 3.1 | 2.24 | 82.5 | inhibition (Heat shock protein HSP90 [4]): Active; Activity (A549 [5]): 55.38%; Activity (A549 [6]): 3.19%; Activity (A549 [7]): 41.43%; Activity (A549 [8]): 2%; viability at 0.01 µM (A549 [17]): 95.5%; Activity (A549 [18]): 2.74%; Activity (A549 [19]): 1.15%; Activity (A549 [20]): 0.59%; Activity (A549 [26]): 5.98%; Activity (A549 [27]; 48 h, 0.2 µM): 2.74% and 8.59%; Activity (A549 [28]): 2.94%; inhibition (A549 [29]): Dose-Dependent Effect; Activity (A549 [30]): Active; inhibition (Heat shock protein HSP90 [31]): Dose-Dependent Effect; inhibition (Heat shock protein HSP90 [32]): Dose-Dependent Effect |
| COC1=C2C[C@@H](C)C[C@H](OC)[C@H](O)[C@@H](C)/C=C(\C)[C@H](OC(N)=O)[C@@H](OC)/C=C\C=C(/C)C(=O)NC(=CC1=O)C2=O [GELDANAMYCIN] | – | – | – | – | – | – | – | 60.64 | 3.72 | 35.64 | 2 | 68.97 | 9.03 | 22 | 2 | 93.3 | 1.78 | 2.58 | 2.31 | 90.6 | Activity (A549 [26]): 3.26%; Activity (A549 [27]): 3.77%; Activity (A549 [28]): 2.38% |
| CCNC(=O)c1noc(-c2cc(Cl)c(O)cc2O)c1-c1ccc(OC)cc1 | – | 6.65 | – | 7.16 | 7.12 | 6.66 | 7.30 | – | – | – | – | – | – | – | – | – | – | – | – | – | – |
| CCNC(=O)c1noc(-c2cc(C(C)C)c(O)cc2O)c1-c1ccc(P(C)(C)=O)cc1 | 171 | 6.14 | 6.17 | 6.64 | 6.67 | 6.68 | 6.81 | – | – | – | – | – | – | – | – | – | – | – | – | – | – |

From ChEMBL document CHEMBL5321257, “Development of VER-50589 analogs as novel Hsp90 inhibitors” (Bioorg Med Chem Lett, 2023)
